In assay [1] the test system is skin flap. The assay is described as follows: Protection against ischemic injury in skin flap model. The class given is in vivo, rats. The conditions noted are these: skin flap viability 3 days post-surgery; pretreatment 45 minutes before surgery (SOD at time of surgery). The protocol:
Compounds were tested for their activity in protecting against ischemic injury in a skin flap model in rats.
Animals were pretreated with AICA riboside or AICA riboside plus adenosine deaminase (ADA) 45 minutes before surgery or, as a positive control, superoxide dismutase (SOD) was used at the time of surgery. A skin flap was raised on the abdomen of a rat for 6 hours and then sewn down. The percent viability of the flaps was evaluated at 3 days post-surgery.
This effect was not as pronounced in the presence of ADA, supporting the importance of adenosine's protective role in this setting.

The test system of assay [2] is plasma glucose. The experiment in a line: Plasma glucose in streptozocin-hyperglycemic rats. Type of assay: in vivo. The conditions noted are these: rats made hyperglycemic with 50 mg/Kg streptozocin I.V.; doses as low as 100 mg/Kg I.P. The protocol:
This hypoglycemic effect may contribute to the anti-ischemic properties of the molecule. Ribose is known to lower blood glucose in several animal species, including man, in relatively high doses (on the order of about 1000 mg/kg) by an unknown mechanism, possibly by inhibition of phosphoglucomutase. Accordingly, in theory, AICA riboside could cause hypoglycemia at extremely high doses ([…]) due to its ability to deliver ribose phosphate to cells. Other means of increasing intracellular ribose such as treatment with ribose itself or other nucleosides and prodrugs and analogs of them which can be metabolized to yield ribose-1-phosphate (which is converted ribose-5-phosphate) or ribose-5-phosphate may also lower blood sugar. […] At higher doses of AICA riboside, hypoglycemic seizures and death were induced in rabbits and mice. We have found rats to also be sensitive to the hypoglycemic effects of AICA riboside. Initial studies were performed using non-fasted rats (Sprague Dawley) and mice (Swiss-Webster). […] In non-fasted mice the decrease of glucose levels at this dose was greater, On the order of 30-50%. In both cases the hypoglycemia was statistically significant at the p <.01 level. […] In fasted mice, AICA riboside is potent in lowering blood glucose. (See e.g., Figure 6). In fasted mice AICA riboside may cause seizures at doses of 500 mg/Kg and above. […]

Assay [3] has as its system liver glycogen. The assay is described as follows: Effect on liver glycogen in mice. The class given is in vivo. The conditions noted are these: 750 mg/Kg. On the procedure:
(See Figures 9 and 10A to 10D). The glucose lowering effects of AICA riboside are related temporally to the generation and maintenance of liver ZMP levels in rats. (See Figures 11A and 11B).
Swiss Webster mice were treated with saline (as a control) or 750 mg/kg of AICA riboside administered intraperitoneally, six animals per group. The mice were sacrificed one hour post-administration The livers were removed and extracted. Liver glycogen was determined by the method of Dubois, et al., Anal. Chem. 28:350-356 (1956). Glucose was measured by the hexokinase method (See Example K).

Assay [4] relates to Blood glucose. The experiment in a line: Hypoglycemic effects of oral AICA riboside prodrugs. To be noted: equimolar amounts. The class given is in vivo, mice (Swiss Webster). On the procedure:
Male mice (Swiss Webster) were given equimolar amounts of either saline, AICA riboside, or compounds C1 or 10 of Table I orally. Blood glucose levels were measured one hour after administration by the glucose strip method (Chemstrip B.G.).

Assay [5] addresses adenosine kinase (Homo sapiens, UniProt P55263). The experiment in a line: Inhibition of adenosine kinase. Type of assay: biochemical.
The test system of assay [6] is infarct size. The assay is described as follows: Rat models of focal brain ischemia (partial and total reperfusion). Type of assay: in vivo. To be noted: 800 mg/kg IP. From the text: The claimed prodrugs, by delivering AICA riboside should provide similar efficacy. […] Both intracerebroventricular (ICV) and IP administration of AICA riboside was effective in the gerbil model In addition to the gerbil, two different rat models of focal ischemia were also used to evaluate AICA-riboside. One model employed partial reperfusion and the second total reperfusion.

In assay [7] the test system is triglycerides. The assay is described as follows: Plasma triglyceride levels in diabetic rats, chronic treatment. Type of assay: in vivo. To be noted: streptozotocin-induced diabetes in rats. The protocol: Rats were made diabetic by treatment with streptozocin (50 mg/kg IV) and then treated with either saline or AICA riboside (500 mg/kg, twice a day) for 22 days. Plasma triglyceride levels were analyzed 18 hours after the last injection of AICA riboside using the Sigma Procedure #334 Assay Kit (coupled assay employing lipase, glycerokinase, pyruvate kinase and lactate dehydrogenase) which measures decreases in OD₃₄₀ over time (NADH disappearance).

The test system of assay [8] is insulin. The assay is described as follows: Plasma insulin levels in humans. Type of assay: in vivo. To be noted: human subjects; precedes the drop in blood glucose. On the procedure: Human (male) volunteers were given a 15-minute intravenous infusion of 50 mg/kg AICA riboside. Plasma concentrations of immunoreactive insulin was determined by RIA during and following the administration for about 4 hours. (RIA kit, Amersham Clinical).

Assay [9] relates to insulin. The experiment in a line: Blood insulin levels in rats. The class given is in vivo. To be noted: high doses, early time points. From the text:
This leads to investigation of the mechanism of AICA riboside induced hypoglycemia. […] This adenosine induced hyperglycemia is reversed by adenosine receptor antagonists (theophylline and sulphophenyltheophylline). Additionally, the AICA riboside-induced hypoglycemia is not blocked by theophylline. It is therefore concluded that the AICA riboside effect on plasma glucose is not mediated by adenosine. […] (See Figure 13).

In assay [10] the test system is lactate and pyruvate. The experiment in a line: Blood lactate and pyruvate in rats. Type of assay: in vivo. On the procedure: AICA riboside (100, 250 or 500 mg/kg) or saline (as a control) was administered intraperitoneally to rats. Sixty minutes after AICA riboside administration, the rats were sacrificed by cervical dislocation. Blood glucose was determined spectrophotometrically measuring O.D. at 340 nm by the hexokinase method using the glucose SR Reagent (Medical Analysis Systems, Inc.) Blood lactate and pyruvate were determined spectrophotometrically measuring O.D. at 340 nm using lactate dehydrogenase in the presence of excess NAD or NADH, respectively.

Each structure is given as a SMILES string.

adenosine kinase, sequence (P55263 whole entry, species assumed, the tested form may be a part): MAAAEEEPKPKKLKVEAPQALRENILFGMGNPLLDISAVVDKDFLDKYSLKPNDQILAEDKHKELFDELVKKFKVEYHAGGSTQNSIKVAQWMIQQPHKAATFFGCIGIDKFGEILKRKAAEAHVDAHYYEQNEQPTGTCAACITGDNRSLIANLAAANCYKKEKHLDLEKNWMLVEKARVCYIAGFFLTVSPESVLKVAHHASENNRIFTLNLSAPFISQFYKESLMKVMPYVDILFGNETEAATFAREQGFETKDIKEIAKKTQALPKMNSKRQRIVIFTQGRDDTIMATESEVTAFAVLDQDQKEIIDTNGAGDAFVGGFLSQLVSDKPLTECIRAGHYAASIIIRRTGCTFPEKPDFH

Take `NC(=O)c1ncn([C@@H]2O[C@H](CO)[C@@H](O)[C@H]2O)c1N` [AICA riboside, 1-β-D-ribofuranosyl-5-aminoimidazole-4-carboxamide]: the “% Viable” value in assay [1] is 75%. For the same compound, the “effect on plasma glucose” value in assay [2] is “marked decreases in plasma glucose that approached euglycemic levels”. Also, the “increase of liver glycogen” value in assay [3] came to 55%. In addition, in assay [4], the “hypoglycemia after oral administration” value was “did not produce detectable hypoglycemia”. In addition, the “inhibition of adenosine kinase” value in assay [5] was “weak inhibitor”. For the same compound, the infarct size entry in assay [6] was “highly significant reduction in infarct size”. Also, the serum triglycerides result in assay [7] is recorded as “lowers serum triglycerides”. The serum insulin levels result in [8] is given as “significant elevations of serum insulin levels”. Also, the blood insulin levels entry in [9] was “suppress blood insulin levels”. In [10], the “lactate to pyruvate ratio” value was “not changed”; the “liver glycogen, serum lactate and pyruvate” value is “elevation of liver glycogen and of serum lactate and pyruvate”.

Source of the values: patent publication EP0427799B1, “METHOD AND COMPOUNDS FOR AICA RIBOSIDE DELIVERY AND FOR LOWERING BLOOD GLUCOSE” (GENSIA, INC., priority 1989, dated 1990).
